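Results reflect a 48-hour exposure of cells in 96-well plates to compound at five concentrations. The concentration for 50% growth inhibition is given as GI50. The concentration for full growth arrest is given as TGI.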 Some results are limits rather than exact numbers.

Among the test systems are CAKI-1 renal; HCC-2998 colon; HL-60(TB) leukemia; NCI-H226 lung; NCI-H522 lung; OVCAR-5 ovarian; SF-268 CNS; SF-539 CNS; SR leukemia; SW-620 colon.
What all share (experiment): DTP human tumour cell line panel, 48 h

Consider `CC1(C)CC2C(=O)c3ccccc3NC2c2ccccc21` (configuration not stated), for which the TGI with CAKI-1 renal was over 100 µM; in the assay with HCC-2998 colon, over 100 µM; in the assay with HL-60(TB) leukemia it was 32.6 µM; with NCI-H226 lung, over 100 µM; in the assay with NCI-H522 lung it was 4.49 µM; in the assay on OVCAR-5 ovarian it was over 100 µM. Moreover, the TGI was over 100 µM in the assay with SF-268 CNS, over 22.8 µM with SF-539 CNS, over 100 µM in the assay with SR leukemia and over 100 µM with SW-620 colon.

Consider `CSC(=S)N/N=C/c1nccc2ccccc12`, for which the TGI in the assay with CAKI-1 renal stood at 14.2 µM; in the assay with HCC-2998 colon, 11.3 µM; in the assay on HL-60(TB) leukemia, 6.69 µM; in the assay with NCI-H226 lung it was 12 µM; in the assay on NCI-H522 lung, 1.63 µM; in the assay with OVCAR-5 ovarian, 8.96 µM. Also, the TGI in the assay with SF-268 CNS was determined as 9.65 µM; in the assay on SF-539 CNS, 4.83 µM; in the assay with SR leukemia, 18.8 µM; in the assay on SW-620 colon it was 18.8 µM.

On to `Cc1ccc(-c2nc3nc(-c4ccc(F)cc4)nc(N4CCCNCC4)c3o2)cc1`, for which the GI50 is 1.44 µM with CAKI-1 renal; 1.68 µM in the assay with HCC-2998 colon; 0.211 µM with HL-60(TB) leukemia; 1.96 µM in the assay on NCI-H226 lung; 1.65 µM with NCI-H522 lung; 1.65 µM in the assay on OVCAR-5 ovarian. In addition, the GI50 in the assay on SF-268 CNS is 1.73 µM; in the assay on SF-539 CNS, 1.66 µM; with SR leukemia it was 0.256 µM; in the assay on SW-620 colon, 0.742 µM. Besides, the TGI in the assay on CAKI-1 renal is 2.74 µM; in the assay on HCC-2998 colon, 3.37 µM; with HL-60(TB) leukemia it was 0.46 µM; in the assay on NCI-H226 lung, 4.05 µM; in the assay on NCI-H522 lung it was 3.51 µM; in the assay on OVCAR-5 ovarian, 3 µM. Also, the TGI is 3.44 µM in the assay on SF-268 CNS, 3.04 µM in the assay on SF-539 CNS, 0.813 µM in the assay with SR leukemia and 2.17 µM in the assay on SW-620 colon.

Take `CN1/C(=C\C=C\C2=[N+](C)c3ccccc3C2(C)C)C(C)(C)c2ccccc21`: the GI50 with CAKI-1 renal was 0.55 µM; with HCC-2998 colon it was 0.041 µM; with HL-60(TB) leukemia it was 0.0271 µM; with NCI-H226 lung it was 0.103 µM; in the assay on NCI-H522 lung, 0.0782 µM; with OVCAR-5 ovarian it was 0.37 µM. Moreover, the GI50 is 0.274 µM with SF-268 CNS, 0.224 µM in the assay on SF-539 CNS, 0.194 µM in the assay with SR leukemia and 0.136 µM in the assay with SW-620 colon. Also, the TGI was 5.04 µM in the assay on CAKI-1 renal; 1.25 µM in the assay on HCC-2998 colon; 0.217 µM with HL-60(TB) leukemia; 2.39 µM in the assay on NCI-H226 lung; 10.2 µM in the assay on NCI-H522 lung; 15.5 µM with OVCAR-5 ovarian. Besides, the TGI in the assay on SF-268 CNS was determined as 13 µM; in the assay with SF-539 CNS, 5.91 µM; with SR leukemia, 4.44 µM; with SW-620 colon, 3.79 µM.

Regarding `O=[N+]([O-])c1ccc(-c2ccc(-c3csc(Nc4ccccc4)n3)o2)cc1`, the TGI in the assay on CAKI-1 renal is 39.5 µM; with HCC-2998 colon it was 56.5 µM; in the assay with HL-60(TB) leukemia, 13.5 µM; with NCI-H226 lung, over 84.1 µM; with NCI-H522 lung, 32 µM; with OVCAR-5 ovarian, 31.6 µM. For the same compound, the TGI amounted to 33.2 µM with SF-268 CNS, 33.9 µM with SF-539 CNS, 4.76 µM in the assay with SR leukemia and 56.7 µM with SW-620 colon.

For the compound `CCC(=O)Nc1nc2c(ncn2C2OC(COC(=O)CC)C(OC(=O)CC)C2OC(=O)CC)c(=O)[nH]1` (configuration not stated), the TGI with CAKI-1 renal, in the assay on HCC-2998 colon, in the assay with HL-60(TB) leukemia, in the assay with NCI-H226 lung, in the assay with NCI-H522 lung and in the assay with OVCAR-5 ovarian was over 100 µM each time. For the same compound, the TGI with SF-268 CNS, with SF-539 CNS, in the assay on SR leukemia and in the assay with SW-620 colon was over 100 µM throughout.

For `O=C1OCC2=C1C(c1ccccc1)c1cc3c(cc1N2CCO)OCO3` (configuration not stated), the GI50 with CAKI-1 renal is 3.87 µM; with HCC-2998 colon, 9.91 µM; in the assay with HL-60(TB) leukemia, 3.46 µM; with NCI-H226 lung it was over 50 µM; in the assay with NCI-H522 lung, 1.09 µM; in the assay with OVCAR-5 ovarian it was 13.4 µM. Also, the GI50 with SF-268 CNS was 3.82 µM; in the assay with SF-539 CNS it was 2.41 µM; in the assay on SR leukemia it was 3.49 µM; in the assay on SW-620 colon, 2.18 µM. The TGI with CAKI-1 renal, with HCC-2998 colon, in the assay with HL-60(TB) leukemia, in the assay with NCI-H226 lung, with NCI-H522 lung and in the assay with OVCAR-5 ovarian was over 50 µM in each case. Besides, the TGI in the assay with SF-268 CNS, in the assay with SF-539 CNS, with SR leukemia and with SW-620 colon was over 50 µM in each case.

On to `C(=N\Nc1nnn(Cc2ccccc2)n1)/c1ccccc1`, for which the GI50 in the assay on CAKI-1 renal is 2.57 µM; in the assay with HCC-2998 colon, 5.07 µM; in the assay on HL-60(TB) leukemia, 1.3 µM; in the assay on NCI-H226 lung, 10.4 µM; with NCI-H522 lung it was 0.56 µM; in the assay with OVCAR-5 ovarian it was over 43.7 µM. In addition, the GI50 in the assay on SF-268 CNS is 8.28 µM; with SF-539 CNS it was 3.29 µM; in the assay with SR leukemia, 0.301 µM; in the assay on SW-620 colon, 1.73 µM. For the same compound, the TGI was over 100 µM in the assay with CAKI-1 renal; over 100 µM in the assay with HCC-2998 colon; 11.7 µM with HL-60(TB) leukemia; over 100 µM in the assay with NCI-H226 lung; over 96.6 µM in the assay on OVCAR-5 ovarian; over 89.3 µM with SF-268 CNS. Further, the results for the TGI in the assay on SF-539 CNS, in the assay on SR leukemia and in the assay on SW-620 colon were 32.5 µM, 2.21 µM and over 100 µM, respectively.

For `CCN(C(=O)/C=C/c1ccco1)c1ccccc1`, the TGI with CAKI-1 renal, with HCC-2998 colon, with HL-60(TB) leukemia, in the assay on NCI-H226 lung, in the assay with NCI-H522 lung and with OVCAR-5 ovarian was over 100 µM in each case. The TGI in the assay on SF-268 CNS, with SR leukemia and with SW-620 colon was over 100 µM each time.

For the compound `CN(C)CCNC(=O)Cn1ccc(=O)c2c([N+](=O)[O-])cccc21`, the TGI in the assay with CAKI-1 renal, in the assay with HCC-2998 colon, with HL-60(TB) leukemia, in the assay with NCI-H226 lung, with NCI-H522 lung and with OVCAR-5 ovarian was over 100 µM each time. Moreover, the TGI in the assay on SF-268 CNS, with SF-539 CNS, in the assay with SR leukemia and with SW-620 colon was over 100 µM each time.

Consider `C=CC(OCC)(OCC)OCC`, for which the TGI in the assay with CAKI-1 renal, in the assay with HCC-2998 colon, with HL-60(TB) leukemia, in the assay on NCI-H226 lung, with NCI-H522 lung and with OVCAR-5 ovarian was over 100 µM throughout. Also, the TGI in the assay with SF-268 CNS was over 100 µM; in the assay with SF-539 CNS, over 100 µM; with SR leukemia it was 65.4 µM.

The values above are taken from PubChem BioAssay (NCI).
